Values of other authors, collected in patent US20190321375A1, “METHOD OF ADMINISTERING A NE[…] EFFECT ELECTROENCEPHALOGRAPHIC (EEG) BURST SUPPRESSION” (MARINUS PHARMACEUTICALS, INC., priority 2016, published 2019).
Where two headings read alike, the source gives them in different places.

How the values were obtained:
[1] = in vivo
[2] = tested on: patients; conditions: induction bolus

Row | Compound | half-life (human plasma) [min] | oral availability [1] | half-life (human plasma following oral administration) | Tmax (therapeutic blood levels are reached quickly) | entry into burst suppression [2]
1 | CC(=O)[C@H]1CC[C@H]2[C@@H]3CC[C@H]4C[C@H](O)CC[C@]4(C)[C@H]3CC[C@]12C [Allopregnanolone, 3α,5α-tetrahydroprogesterone] | 45 | poor oral availability | – | – | –
2 | CC(=O)[C@H]1CC[C@H]2[C@@H]3CC[C@H]4C[C@](C)(O)CC[C@]4(C)[C@H]3CC[C@]12C [Ganaxolone, 3α-hydroxy, 3β-methyl-5α-pregnan-20-one] | – | poor oral availability | approximately 20 hours | short | –
3 | CC(C)c1cccc(C(C)C)c1O [propofol] | – | – | – | – | can enter burst suppression directly from the awake state
